Laboratory results: US9212204B2, “Treatment of rett syndrome using glycyl-L-2-methylprolyl-L-glutamic acid” (priority 2011, dated 2015)
Where two headings read alike, the source gives them in different places. Non-standard residues stand in square brackets, D forms with d. Residues, ends and D or L forms follow the SMILES beside them. αMeP = C[C@@]1(C(=O)O)CCCN1

Tests used:
[1] = Pharmacokinetics after intravenous bolus injection; type: in vivo, rat
Experimental: Adult male Wistar rats weighing between 180 and 240 g were used to determine the pharmacokinetics of GPE and […]. To facilitate intravenous bolus injections and blood sampling, all rats were surgically implanted with an indwelling jugular venous cannula under halothane anesthesia three days before the experiment. Groups of six rats were given a single intravenous bolus injection of either 30 mg/kg GPE or 10 mg/kg […] dissolved in 0.1M succinate buffer (pH 6.5). […] The samples were centrifuged at 3000 g for 15 min at 4° C. and the plasma removed and stored at -80° C. until extraction and assay by either radioimmunoassay (“RIA”) or reverse phase HPLC. The RIA and HPLC methods used were conventional. […] The k and half-life (t1/2) were calculated from the slope of the linear regression line in the elimination phase of the semi-logarithmic plot of plasma concentration versus time as: Log. C=-kt/2.3+log C0. Results were expressed as mean±standard error.

[2] = system: hemizygous MeCP2(1lox) male mice; type: in vivo; conditions: for time to 50 percent death: 20 mg/kg/day i.p.
Description: To determine whether G-2-MePE treatment can impact the development and progression of Rett Syndrome in a murine model of the disorder, we used hemizygous MeCP2(1lox) male mice. The MeCP2 knock-out (MeCP2-KO) mouse system is widely accepted in the art as closely mimicking the range and the severity of physiological and neurological abnormalities characteristic of the human disorder, Rett Syndrome.

[3] = system: hippocampal CA1 neurons of mecp2 null mutant mice; experiment: Golgi staining, dendrite morphology in mecp2 knockout mice; type: in vivo, mouse
Experimental: We assess the effects of G-2-MePE treatment on dendrites. Transgenic mecp2 knockout mice (n=15 to 20) were administered G-2-MePE intraperitoneally at a dose of 20 mg/kg once daily. Following sacrifice dendritic spine density, spine length and aborization were examined after Golgi staining after nine weeks, as per the Table 1 below:
Dendritic length was assessed by distance from the soma of representative hippocampal CA1 neurons from 9 week old male mecp2 null mutant mice treated with either saline (3 neurons analysed from 3 separate mice, n=9) or G-2-MePE (20 mg/kg i.p. 1/day, from week 4; 3 neurons analysed from 3 separate mice, n=9).

[4] = system: layer 5 pyramidal neurons in motor cortex of P28 knockout mice; experiment: Golgi staining, cortical spine density; type: in vivo, mouse; conditions: knockout with treatment
Experimental: Samples (<1 cm) from P28 mice are fixed in 10% formalin and 3% potassium bichromate for 24 hours. Tissue is then transferred into 2% silver nitrate for 2 days in the dark at room temperature. Sections from these samples are then cut at 50 μm thickness into distilled water. Sections corresponding to motor cortex are mounted onto slides, air dried for 10 minutes, and then dehydrated through sequential rinses of 95% alcohol, 100% alcohol, and xylene, and then sealed with a coverslip. Images re acquired at 10× (whole cell) and 100× (spine imaging) using a Zeiss Pascal 5 Exciter confocal microscope.
We use Golgi staining to label neurons sparsely and distinctly, and applied high-resolution confocal imaging to measure dendritic spine density and morphology in the labelled cells, restricting analysis to layer 5 pyramidal neurons in sections of motor cortex from critical period mice (P28).
While low-magnification imaging clearly delineates the extent of the dendrites of the pyramidal cells we use higher magnifications to count synaptic contacts and determine the morphological class of each spine. We classify spines as either large and bulbous (“mushroom”, M), short and stubby (“stubby”, S), short and thin (“thin”, T) or filopodia (F).

[5] = system: animals with penetrating ballistic injury; conditions: pTBI; cited from earlier work
MeCP2-/y mice = experiment: Life span of MeCP2-/y mice (Example 10); type: in vivo, mouse; conditions: 20 mg/kg i.p. daily; compared to MeCP2 KO littermates
Experimental: (§1) For the survival measurements, the nocturnal activity analysis and the immunoblot analysis, G-2-MePE (synthesised Albany Molecular Research Inc. (Albany, N.Y.) and supplied by Neuren Pharmaceuticals Limited) is administered daily via intra-peritoneal injections (20 mg/kg, vehicle=saline, 0.01% BSA). The treatment starts at PI 5 and is maintained throughout the course of the experiments. For intracellular physiology experiments, the mice are injected daily with G-2-MePE (20 mg/kg body weight, vehicle=saline, 0.01% BSA) for 2 weeks, from P15 to P28-P32 when they are used for acute slice preparation. For optical imaging experiments, mice are injected with G-2-MePE (20 mg/kg body weight, vehicle=saline, 0.01% BSA) daily from the day of the lid suture to the day of imaging.
To test whether G-2-MePE treatment will impact the development of cardinal features of the RTT disease, 2 week old mutant animals are given daily intra-peritoneal injections for the course of their lifespan. Measurements of synaptic physiology, synaptic molecular composition, and cortical plasticity are then acquired as detailed below, along with health-related measurements such as heart rate, locomotor activity levels, and lifespan.

MeCP2 knockout mice = experiment: Nocturnal activity measurements; type: in vivo, mouse; conditions: 20 mg/kg i.p. daily; after 6 weeks
Experimental: as §1
Spontaneous motor activity is measured by using an infrared beam-activated movement-monitoring chamber (Opto-Varimax-MiniA; Columbus Instruments, Columbus, Ohio). […] Movement is monitored during the normal 12-h dark cycle (7 p.m. to 7 a.m.). […]
MeCP2−/y mice develop Rett-like symptoms beginning at 4-6 weeks of age when they progressively become lethargic, develop gait ataxia and die between 10 and 12 weeks of age (Chen et al., 2001). Baseline locomotor activity is also recorded in mice after 6 weeks by counting nocturnal infrared beam crossing events within a caged area.

[6] = 20 mg/kg i.p. once daily, 9 weeks of age

SMILES: C[C@@]1(C(=O)N[C@@H](CCC(=O)O)C(=O)O)CCCN1C(=O)CN [Example G-2-MePE, Glycyl-L-2-methylprolyl-L-glutamic acid] (H-Gly-[αMeP]-Glu-OH)
- first order rate constant ([1]; 10 mg/kg single i.v. bolus, rat): 0.033 ± 0.001 min⁻¹
- maximal plasma concentration relative to GPE ([1]; G-2-MePE 10 mg/kg vs GPE 30 mg/kg i.v.): about 4.8 times
- t1/2 relative to GPE ([1]; i.v., rat): over 4 times
- time to 50 percent death ([2]; data initially presented): 16 weeks
- time to 50 percent death ([2]; re-examination with control group re-run): 16 weeks
- safety in mecp2 mice ([2]; mouse, in vivo): No safety concerns
- dendritic length as a function of distance from the soma ([3]; 20 mg/kg i.p. 1/day from week 4, vs saline, FIG. 24): longer dendrites
- dendritic arborization [3, 6]: improved
- dendritic spine length [3, 6]: increased
- density of spines per unit branch [4]: largely ameliorated
- neuroinflammation [5]: inhibits
- increase in life expectancy (0.5 probability survival rate) (MeCP2-/y mice): ~50%
- locomotor activity levels (nocturnal infrared beam crossing) (MeCP2 knockout mice): elevates
